This note sets out measurements from patent publication US12492188B2, “1H-benzo[D]imidazole derivatives as TLR9 inhibitors for the treatment of fibrosis” (BRISTOL-MYERS SQUIBB COMPANY, priority 2020, dated 2025).

Where two headings read alike, the source gives them in different places. A value given as a limit tells only on which side of the number the result lay.

Holding throughout (type): cell-based
The target of test [1] is T1, human TLR9 (Homo sapiens, UniProt Q9NR96).
T1 construct: host or cells: HEK-Blue cells (HEK293-derived reporter line)
T1 sequence (Q9NR96 26-1032): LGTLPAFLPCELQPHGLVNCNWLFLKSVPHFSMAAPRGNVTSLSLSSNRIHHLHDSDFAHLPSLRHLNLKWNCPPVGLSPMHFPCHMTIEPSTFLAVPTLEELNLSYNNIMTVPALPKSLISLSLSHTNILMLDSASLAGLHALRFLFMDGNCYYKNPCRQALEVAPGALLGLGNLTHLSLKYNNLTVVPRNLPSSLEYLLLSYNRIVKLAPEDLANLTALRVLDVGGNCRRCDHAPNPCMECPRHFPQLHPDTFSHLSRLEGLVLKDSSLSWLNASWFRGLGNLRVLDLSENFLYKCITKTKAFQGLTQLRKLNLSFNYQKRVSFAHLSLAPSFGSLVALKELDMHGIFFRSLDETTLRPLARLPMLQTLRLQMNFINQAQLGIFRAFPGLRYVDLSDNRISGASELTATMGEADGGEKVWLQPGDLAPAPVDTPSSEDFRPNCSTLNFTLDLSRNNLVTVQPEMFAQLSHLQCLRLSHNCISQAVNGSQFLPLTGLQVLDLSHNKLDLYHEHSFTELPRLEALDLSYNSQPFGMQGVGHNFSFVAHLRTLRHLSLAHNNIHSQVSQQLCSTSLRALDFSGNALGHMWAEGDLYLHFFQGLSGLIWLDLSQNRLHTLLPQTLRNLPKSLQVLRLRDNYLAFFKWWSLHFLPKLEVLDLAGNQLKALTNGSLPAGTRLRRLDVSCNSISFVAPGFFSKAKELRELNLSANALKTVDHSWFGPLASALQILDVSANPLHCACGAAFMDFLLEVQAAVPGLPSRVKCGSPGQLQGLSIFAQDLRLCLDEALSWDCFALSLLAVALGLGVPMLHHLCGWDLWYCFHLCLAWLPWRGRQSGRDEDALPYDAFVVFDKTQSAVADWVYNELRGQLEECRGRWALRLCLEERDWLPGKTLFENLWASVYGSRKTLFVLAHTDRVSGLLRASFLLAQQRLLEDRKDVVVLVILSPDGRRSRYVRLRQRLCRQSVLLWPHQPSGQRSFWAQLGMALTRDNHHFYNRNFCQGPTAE
The test can be described thus: TLR9 inhibition reporter assay (HEK-Blue cells, secreted embryonic alkaline phosphatase reporter). The essentials:
(§1)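 Inhibitors are tested in dose response (0.05 nM–50 μM) on HEK-Blue reporter cells expressing human TLR7, TLR8 or TLR9. After 30 min at room temperature, each line is stimulated with its own agonist (gardiquimod 7.5 μM, R848 15.9 μM or ODN2006 5 nM, final) and SEAP is measured 22 h later.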
In general terms: A reporter such as luciferase makes a cellular process visible.

The target in test [2] is T2, human TLR7 (Homo sapiens, UniProt Q9NYK1).
T2 construct: host or cells: HEK-Blue cells (HEK293-derived reporter line)
T2 sequence (Q9NYK1 27-1049): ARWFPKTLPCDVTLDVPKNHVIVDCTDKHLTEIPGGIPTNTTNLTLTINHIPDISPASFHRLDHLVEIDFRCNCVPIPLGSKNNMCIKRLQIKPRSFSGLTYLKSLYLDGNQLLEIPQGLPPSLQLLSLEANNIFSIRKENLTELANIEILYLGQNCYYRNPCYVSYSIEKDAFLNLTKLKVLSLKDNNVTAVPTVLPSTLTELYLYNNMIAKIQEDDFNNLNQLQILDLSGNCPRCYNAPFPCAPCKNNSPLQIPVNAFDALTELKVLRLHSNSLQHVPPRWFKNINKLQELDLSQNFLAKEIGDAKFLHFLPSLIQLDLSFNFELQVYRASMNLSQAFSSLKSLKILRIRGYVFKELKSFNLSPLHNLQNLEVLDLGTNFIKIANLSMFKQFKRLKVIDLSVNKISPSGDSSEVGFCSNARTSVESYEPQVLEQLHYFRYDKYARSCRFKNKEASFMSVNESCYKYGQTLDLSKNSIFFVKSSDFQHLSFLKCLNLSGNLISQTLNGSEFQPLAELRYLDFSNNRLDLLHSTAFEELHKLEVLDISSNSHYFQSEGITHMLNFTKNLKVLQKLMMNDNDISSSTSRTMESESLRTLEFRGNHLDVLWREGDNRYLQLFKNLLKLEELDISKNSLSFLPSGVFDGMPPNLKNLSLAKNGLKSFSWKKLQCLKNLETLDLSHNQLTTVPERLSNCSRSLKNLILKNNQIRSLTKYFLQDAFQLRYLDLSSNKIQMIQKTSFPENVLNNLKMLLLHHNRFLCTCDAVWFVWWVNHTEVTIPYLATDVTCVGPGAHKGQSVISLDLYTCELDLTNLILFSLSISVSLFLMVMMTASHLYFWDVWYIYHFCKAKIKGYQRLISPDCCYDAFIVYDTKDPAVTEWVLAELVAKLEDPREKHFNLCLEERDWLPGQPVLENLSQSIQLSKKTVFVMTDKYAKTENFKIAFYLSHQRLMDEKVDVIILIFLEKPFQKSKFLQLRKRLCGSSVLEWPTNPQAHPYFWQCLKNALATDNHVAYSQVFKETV
The test can be described thus: TLR7 inhibition reporter assay (HEK-Blue cells, secreted embryonic alkaline phosphatase reporter). As to conditions: HEK-Blue cells overexpressing human TLR7, stimulated with gardiquimod 7.5 μM; read-out: TLR 7 IC50. In short, it runs like this: as §1

The target of test [3] is T3, human TLR8 (Homo sapiens, UniProt Q9NR97).
T3 construct: host or cells: HEK-Blue cells (HEK293-derived reporter line)
T3 sequence (Q9NR97 27-1041): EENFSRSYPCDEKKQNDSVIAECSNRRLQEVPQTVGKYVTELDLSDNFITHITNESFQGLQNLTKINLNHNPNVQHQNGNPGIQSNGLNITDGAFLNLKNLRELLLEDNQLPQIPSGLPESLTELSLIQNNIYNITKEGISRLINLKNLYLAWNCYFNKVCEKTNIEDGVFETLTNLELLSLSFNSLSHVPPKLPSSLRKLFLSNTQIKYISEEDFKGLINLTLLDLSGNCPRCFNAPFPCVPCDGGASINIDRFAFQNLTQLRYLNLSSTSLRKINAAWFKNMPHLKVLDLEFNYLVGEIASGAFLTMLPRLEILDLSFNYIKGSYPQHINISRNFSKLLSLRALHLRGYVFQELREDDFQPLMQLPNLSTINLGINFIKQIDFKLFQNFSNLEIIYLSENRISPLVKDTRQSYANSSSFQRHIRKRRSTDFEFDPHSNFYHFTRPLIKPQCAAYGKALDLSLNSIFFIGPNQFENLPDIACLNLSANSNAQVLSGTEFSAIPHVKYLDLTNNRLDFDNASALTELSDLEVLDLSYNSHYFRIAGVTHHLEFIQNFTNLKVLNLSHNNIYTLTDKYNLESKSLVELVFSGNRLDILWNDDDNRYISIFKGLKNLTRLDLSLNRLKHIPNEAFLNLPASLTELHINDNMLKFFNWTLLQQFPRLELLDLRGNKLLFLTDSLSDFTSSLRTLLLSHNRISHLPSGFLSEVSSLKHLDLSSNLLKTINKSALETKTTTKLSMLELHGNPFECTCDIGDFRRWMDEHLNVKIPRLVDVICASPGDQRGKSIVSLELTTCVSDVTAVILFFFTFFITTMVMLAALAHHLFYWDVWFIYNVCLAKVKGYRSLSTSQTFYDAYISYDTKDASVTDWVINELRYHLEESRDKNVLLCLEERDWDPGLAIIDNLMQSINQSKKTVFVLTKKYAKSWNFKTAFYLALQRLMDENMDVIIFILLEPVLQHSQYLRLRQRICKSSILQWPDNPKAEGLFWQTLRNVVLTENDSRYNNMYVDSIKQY
The test can be described thus: TLR8 inhibition reporter assay (HEK-Blue cells, secreted embryonic alkaline phosphatase reporter). As to conditions: HEK-Blue cells overexpressing human TLR8, stimulated with R848 15.9 μM; read-out: TLR 8 IC50. In short, it runs like this: as §1

[4] abbreviates: HEK-Blue cells overexpressing human TLR9, stimulated with ODN2006 5 nM, read-out: TLR 9 IC50.
[5] abbreviates: HEK-Blue human TLR9 reporter cells.

The IC50 is the concentration that gives 50% inhibition. With `COCCN1CCCC(N2CCC(c3cc(F)c4nc(-c5ccc(S(C)(=O)=O)cc5)n(C)c4c3)CC2)CC1` (single isomer, unassigned) [Example 303, 4-fluoro-6-(1-(1-(2-methoxyethyl)azepan-4-yl)piperidin-4-yl)-1-methyl-2-(4-(methylsulfonyl)phenyl)-1H-benzo[d]imidazole], the half-inhibitory concentration (IC50) in test [1] (setting [4]) was 14 nM; in test [1] (setting [5]) it was 14 nM; in test [2], 4200 nM; in test [3], over 50000 nM.

Consider `Cc1cc(C2CCN(C3CCCN(C4CCOCC4)CC3)CC2)cc2c1nc(-c1ccc(S(C)(=O)=O)cc1)n2C` (single isomer, unassigned) [Example 306, 1,4-dimethyl-2-(4-(methylsulfonyl)phenyl)-6-(1-(1-(tetrahydro-2H-pyran-4-yl)azepan-4-yl)piperidin-4-yl)-1H-benzo[d]imidazole], for which the IC50 was 17 nM in test [1] (setting [4]), 17 nM in test [1] (setting [5]), 9500 nM in test [2] and over 50000 nM in test [3].

As for `Cc1cc(C2CCN(C3CCCN(C4CCOCC4)CC3)CC2)cc2c1nc(-c1ccc(S(C)(=O)=O)cc1)n2C` (single isomer, unassigned) [Example 307, 1,4-dimethyl-2-(4-(methylsulfonyl)phenyl)-6-(1-(1-(tetrahydro-2H-pyran-4-yl)azepan-4-yl)piperidin-4-yl)-1H-benzo[d]imidazole], the IC50 in test [1] (setting [4]) is 3.5 nM; in test [1] (setting [5]) it was 3.5 nM; in test [2] it was 20500 nM; in test [3] it was over 50000 nM.

As for `COCCN1CCCC(N2CCC(c3cc(C)c4nc(-c5ccc(S(C)(=O)=O)cc5)n(C)c4c3)CC2)CC1` (single isomer, unassigned) [Example 308, 6-(1-(1-(2-methoxyethyl)azepan-4-yl)piperidin-4-yl)-1,4-dimethyl-2-(4-(methylsulfonyl)phenyl)-1H-benzo[d]imidazole], the IC50 is 6.7 nM in test [1] (setting [4]), 6.7 nM in test [1] (setting [5]), 2600 nM in test [2] and over 50000 nM in test [3].

On to `COCCN1CCCC(N2CCC(c3cc(C)c4nc(-c5ccc(S(C)(=O)=O)cc5)n(C)c4c3)CC2)CC1` (single isomer, unassigned) [Example 309, 6-(1-(1-(2-methoxyethyl)azepan-4-yl)piperidin-4-yl)-1,4-dimethyl-2-(4-(methylsulfonyl)phenyl)-1H-benzo[d]imidazole], for which the IC50 is 34 nM in test [1] (setting [4]), 34 nM in test [1] (setting [5]), 1900 nM in test [2] and over 50000 nM in test [3].

For the molecule `CC(C)CN1C2CCC1CC(N1CCC(c3cc(F)c4nc(-c5ccc(S(C)(=O)=O)cc5)n(C5CC5)c4c3)CC1)C2` (single isomer, unassigned) [Example 322, 1-cyclopropyl-4-fluoro-6-(1-(8-isobutyl-8-azabicyclo[3.2.1]octan-3-yl)piperidin-4-yl)-2-(4-(methylsulfonyl)phenyl)-1H-benzo[d]imidazole], the IC50 in test [1] (setting [4]) was 12 nM; in test [1] (setting [5]), 12 nM; in test [2] it was 1400 nM; in test [3] it was over 50000 nM.

On to `CC(C)CN1C2CCC1CC(N1CCC(c3cc(F)c4nc(-c5ccc(S(C)(=O)=O)cc5)n(C5CC5)c4c3)CC1)C2` (single isomer, unassigned) [Example 323, 1-cyclopropyl-4-fluoro-6-(1-(8-isobutyl-8-azabicyclo[3.2.1]octan-3-yl)piperidin-4-yl)-2-(4-(methylsulfonyl)phenyl)-1H-benzo[d]imidazole], for which the IC50 in test [1] (setting [4]) was 60 nM; in test [1] (setting [5]), 60 nM; in test [2], 2100 nM; in test [3] it was over 50000 nM.

With `CS(=O)(=O)c1ccc(-c2nc3c(F)cc(C4CCN(C5CC6CCC(C5)N6CC5CC5)CC4)cc3n2C2CC2)cc1` (single isomer, unassigned) [Example 324, 1-cyclopropyl-6-(1-(8-(cyclopropylmethyl)-8-azabicyclo[3.2.1]octan-3-yl)piperidin-4-yl)-4-fluoro-2-(4-(methylsulfonyl)phenyl)-1H-benzo[d]imidazole], the IC50 is 42 nM in test [1] (setting [4]), 42 nM in test [1] (setting [5]), 1500 nM in test [2] and over 50000 nM in test [3].

Regarding `CS(=O)(=O)c1ccc(-c2nc3c(F)cc(C4CCN(C5CC6CCC(C5)N6CC5CC5)CC4)cc3n2C2CC2)cc1` (single isomer, unassigned) [Example 325, 1-cyclopropyl-6-(1-(8-(cyclopropylmethyl)-8-azabicyclo[3.2.1]octan-3-yl)piperidin-4-yl)-4-fluoro-2-(4-(methylsulfonyl)phenyl)-1H-benzo[d]imidazole], the IC50 in test [1] (setting [4]) was 15 nM; in test [1] (setting [5]), 15 nM; in test [2], 8200 nM; in test [3], over 50000 nM.
